Reference: patent publication US5466440A, “Formulations of oral gastrointestinal diagnostic X-ray contrast agents in combination with pharmaceutically acceptable clays” (Eastman Kodak Company, priority 1994, dated 1995)
≈ marks a conversion by molar mass, not a printed value.

Experiments:
Aqueous solubility = format: physicochemical; conditions: water, Table 3
[1] = X-ray diagnostic imaging of the GI tract; format: in vivo, rats; conditions: for Imaging efficacy, stabilized with Pluronic F88: milled with F88
Procedure: X-ray diagnostic imaging was performed in anesthetized rats with the exception of G05-R1 samples which were imaged in fasted and anesthetized ferrets. Images were obtained using the Siemens C-Arm Siremobil 3U x-ray unit. The imaging dose was 10 ml/kg administered via gastric intubation to the anesthetized animal. X-rays were taken at 15, 30, 45 and 60 minutes and at 1, 2, 5 and 24 hours post-dose. […]
Images were evaluated by the criteria of: coating, homogeneity, rate of gastric emptying and the total transit time. These are considered to be a measure of the stability of the nanosuspension during transit down the GI tract and the ability of the formulation to image the lower gastrointestinal tract. Nanosuspensions were rated excellent when there was a uniform coating with transradiation of long intestinal segments, sufficient radiodensity to delineate anatomical structure, rapid emptying and transit, and stability and homogeneity during GI transit. A plus sign (+) was assigned when imaging in the lower GI was exceptional, a minus sign (-) as given when it was not. […] All other nanosuspensions were compared with this formulation.

[2] = X-ray diagnostic imaging of the GI tract; format: in vivo; conditions: ferrets; milled in Pluronic F127
Procedure: X-ray diagnostic imaging was performed in anesthetized rats with the exception of G05-R1 samples which were imaged in fasted and anesthetized ferrets. Images were obtained using the Siemens C-Arm Siremobil 3U x-ray unit. The imaging dose was 10 ml/kg administered via gastric intubation to the anesthetized animal. X-rays were taken at 15, 30, 45 and 60 minutes and at 1, 2, 5 and 24 hours post-dose. A 10-15 ml volume of air was introduced to the animal at 30 minutes to produce a double contrast image.
Images were evaluated by the criteria of: coating, homogeneity, rate of gastric emptying and the total transit time. These are considered to be a measure of the stability of the nanosuspension during transit down the GI tract and the ability of the formulation to image the lower gastrointestinal tract. Nanosuspensions were rated excellent when there was a uniform coating with transradiation of long intestinal segments, sufficient radiodensity to delineate anatomical structure, rapid emptying and transit, and stability and homogeneity during GI transit. A plus sign (+) was assigned when imaging in the lower GI was exceptional, a minus sign (-) as given when it was not. The nanosuspension of WIN 8883 milled in Pluronic F127, was considered to be excellent for both upper and lower GI imaging in both rats and ferrets. All other nanosuspensions were compared with this formulation.

Row | solubility (Aqueous solubility) | Compound | Imaging efficacy, overall [1] | Lower GI imaging [1] | also measured
1 | 1 µg/mL (≈ 1.27 µM) | CC(=O)Nc1c(I)c(NC(C)=O)c(I)c(C(=O)OCc2ccc(C(=O)OC(C)C)cc2)c1I [WIN 67956, 3,5-Bis-acetylamino-2,4,6-triiodo-benzoic acid 4-isopropyl benzoate ester] | good | – | Gastric emptying [1]: very rapid gastric emptying; Coating ([1]; repeated with air given at 15 minutes to induce double contrast): No improvement in coating
2 | 1 µg/mL (≈ 1.52 µM) | CCOC(=O)c1c(I)c(NC(C)=O)c(I)c(C(=O)OCC)c1I [WIN 59316, Diethyl 5-acetylamino-2,4,6-triiodo-isophthalate] | fair | imaging well in the lower GI tract | –
3 | 2 µg/mL (≈ 2.65 µM) | CCOC(=O)CCCCCOC(=O)c1c(I)c(NC(C)=O)c(I)c(NC(C)=O)c1I [WIN 67722, 6-Ethoxy-6-oxohexyl 3,5-bis(acetylamino)-2,4,6-triiodobenzoate] | – | poor | Upper GI imaging [1]: good
4 | < 1 µg/mL | CCOC(=O)C(CC)OC(=O)c1c(I)c(NC(C)=O)c(I)c(C(=O)OC(CC)C(=O)OCC)c1I (stereo not shown) [WIN 68183, Bis-[1-(ethoxycarbonyl)propyl]-2,4,6-triiodo-5-acetylamino-isophthalate] | excellent | not as definitive as with WIN 8883 | Imaging efficacy, stabilized with Pluronic F88 [1]: loss of efficacy
5 | 1 µg/mL (≈ 1.25 µM) | CC(=O)Nc1c(I)c(NC(C)=O)c(I)c(C(=O)OC(C(=O)OC(C)C)C(=O)OC(C)C)c1I [WIN 68165, Propanedioic Acid, [[3,5-bis-(acetylamino)-2,4,6-triiodo-benzoyl]oxy]-bis(1-methylethyl)ester] | fair | – | –
6 | 8 µg/mL (≈ 10.2 µM) | CCOC(=O)C(C)(OC(=O)c1c(I)c(NC(C)=O)c(I)c(NC(C)=O)c1I)C(=O)OCC [WIN 67975] | fair | – | –
7 | 15 µg/mL (≈ 20.4 µM) | COc1ccc(COC(=O)c2c(I)c(NC(C)=O)c(I)c(NC(C)=O)c2I)cc1 [WIN 67754, 3,5-Bis-acetylamino-2,4,6-triiodo-benzoic acid 4-methoxy-benzyl ester] | good | exceptional | –
8 | < 1 µg/mL | CCc1c(I)c(CC)c(I)c(CC)c1I [WIN 68756, 1,3,5-Triethyl-2,4,6-triiodobenzene] | excellent | not as definitive as with WIN 8883 | Imaging efficacy, stabilized with Pluronic F88 [1]: loss of efficacy
9 | 1 µg/mL (≈ 1.3 µM) | CC(=O)Nc1c(I)c(NC(C)=O)c(I)c(C(=O)OCCCCCC(=O)OC(C)C)c1I [WIN 67995, 3,5,-Bis-acetylamino-2,4,6-triiodo-benzoic acid 5-isopropoxycarbonyl-pentylester] | – | poor | Upper GI imaging [1]: good
10 | – | CCCCC(CC)COC(=O)CC(C(=O)OCC(CC)CCCC)S(=O)(=O)O (stereo not shown) [DOSS, dioctylsulfosuccinate] | – | – | Stabilizing effect on imaging efficacy ([1]; stabilizer for WIN 8883 nanosuspension): fair
11 | < 5 µg/mL | CCOC(=O)c1c(I)c(NC(C)=O)c(I)c(NC(C)=O)c1I [WIN 8883, Ethyl 3,5-bis(acetylamino)-2,4,6-triiodobenzoate] | excellent | – | Upper and lower GI imaging [2]: excellent; Imaging efficacy, stabilized with Pluronic F88 [1]: excellent imaging, and then only in the upper GI; Upper and lower GI imaging ([1]; rats, milled in Pluronic F127): excellent
